Laboratory results taken from the supplement of paper PMC13380429.

Legend:
HepG2 [1] = assay: cell viability relative to DMSO; higher = less toxic; conditions: 72 h
Vero E6 [2] = assay: as above; conditions: 72 h
U2OS [3] = assay: as above; conditions: 72 h
Calu-3 [4] = assay: as above; conditions: 72 h
Caco-2 [5] = assay: as above; conditions: 72 h
[6] = system: A549-ACE2 infected with SARS-CoV-2; assay: cell count relative to DMSO; higher = less toxic; conditions: 24 h
A549-ACE2 = assay: drug-induced phospholipidosis relative to tamoxifen; higher = more phospholipidosis
[7] = system: A549-ACE2 infected with SARS-CoV-2; assay: SARS-CoV-2 infection rate relative to DMSO; higher = more infection; conditions: 24 h
[8] = system: A549-ACE2 infected with SARS-CoV-2; assay: morphology score (similarity to uninfected cells); higher = more like uninfected cells; conditions: 24 h
Vero E6 [9] = assay: relative viability EC50 (midpoint between 100% and the lowest measured viability); higher = less toxic; conditions: 72 h
U2OS [10] = assay: as above; conditions: 72 h
Calu-3 [11] = assay: as above; conditions: 72 h
Caco-2 [12] = assay: as above; conditions: 72 h
HepG2 [13] = assay: drug sensitivity score (DSS) for viability; higher = more toxic; extreme values may be limits of the assay; conditions: 72 h
Vero E6 [14] = assay: as above; conditions: 72 h
U2OS [15] = assay: as above; conditions: 72 h
Calu-3 [16] = assay: as above; conditions: 72 h
Caco-2 [17] = assay: as above; conditions: 72 h
HepG2 [18] = assay: relative viability EC50 (midpoint between 100% and the lowest measured viability); higher = less toxic; conditions: 72 h

CN(NC(=O)CC(=O)NN(C)C(=S)c1ccccc1)C(=S)c1ccccc1 [elesclomol]
Conditions	SARS-CoV-2 infection rate, [7] [%]	cell count, [6] [%]	cell viability, Caco-2 [5] [%]	cell viability, Calu-3 [4] [%]	cell viability, HepG2 [1] [%]	cell viability, U2OS [3] [%]	cell viability, Vero E6 [2] [%]	morphology score, [8]
1 nM	–	–	93.9	107	93.4	89.6	91.5	–
10 nM	–	–	74.4	83.6	99.4	89.5	96.7	–
100 nM	–	–	7	68.7	69.2	56.9	69.1	–
0.3 µM	93	93	–	–	–	–	–	0.17
1000 nM	–	–	9.7	29.6	66.7	7.8	41.7	–
3 µM	68	104	–	–	–	–	–	0.63
10000 nM	–	–	4.1	99.4	82.1	90.6	86	–
10 µM	99	107	–	–	–	–	–	0.52
30 µM	86	100	–	–	–	–	–	0.39

A549-ACE2
Conditions	drug-induced phospholipidosis [%]
0.3 µM, 24 h	12.3
0.833333 µM, 24 h	9.68
3.33333 µM, 24 h	7.09
6.66667 µM, 24 h	7.28
10 µM, 24 h	9.51
30 µM, 24 h	2.54
30 µM, 48 h	6.18
30 µM, 72 h	10

Conditions	drug sensitivity score	relative viability EC50 [µM]
Caco-2 [12]	–	0.0174
Caco-2 [17]	32.2	–
Calu-3 [11]	–	> 10
Calu-3 [16]	0	–
HepG2 [13]	9.7	–
U2OS [10]	–	0.1
U2OS [15]	21.4	–
Vero E6 [9]	–	0.637
Vero E6 [14]	8.7	–

N#Cc1c[nH]c2c(C(=O)N3CCN(CCc4ccc(F)cc4)CC3)cccc12 [pruvanserin]
cell viability [%]
Conditions	Caco-2 [5]	Calu-3 [4]	HepG2 [1]	U2OS [3]	Vero E6 [2]
1 nM	94.9	91.8	103	94	105
10 nM	95.3	112	110	98.4	86.8
100 nM	96.9	91.4	117	92.5	102
1000 nM	98.1	112	98.1	104	95.2
10000 nM	95.7	101	99.3	100	98.4

Conditions	drug sensitivity score	relative viability EC50 [µM]
Caco-2 [12]	–	> 10
Caco-2 [17]	0	–
Calu-3 [11]	–	> 10
Calu-3 [16]	0	–
HepG2 [13]	0	–
HepG2 [18]	–	> 10
U2OS [10]	–	> 10
U2OS [15]	0	–
Vero E6 [9]	–	> 10
Vero E6 [14]	0	–

O=c1c(-c2ccc(O)cc2)coc2c([C@@H]3O[C@H](CO)[C@@H](O)[C@H](O)[C@H]3O)c(O)ccc12 [puerarin]
cell viability [%]
Conditions	Caco-2 [5]	Calu-3 [4]	HepG2 [1]	U2OS [3]	Vero E6 [2]
1 nM	98.4	89.3	94.4	99.7	99.7
10 nM	99.8	92.3	102	95.2	99.5
100 nM	96	97.5	94.8	96	99.9
1000 nM	98	89.6	107	94.6	107
10000 nM	101	95.6	98.2	100	103

Conditions	drug sensitivity score	relative viability EC50 [µM]
Caco-2 [12]	–	> 10
Caco-2 [17]	0	–
Calu-3 [11]	–	> 10
Calu-3 [16]	0	–
HepG2 [13]	0	–
HepG2 [18]	–	> 10
U2OS [10]	–	> 10
U2OS [15]	0	–
Vero E6 [9]	–	> 10
Vero E6 [14]	0	–
